Among the data in PMC7408562, “The Interaction of Temozolomide with Blood Components Suggests the Potential Use of Human Serum Albumin as a Biomimetic Carrier for the Drug” (Biomolecules, 2020) are Kd values, retold here.

pKd: −log10 of the molar value.

This assay has as its target T1, human serum albumin (HSA) (Homo sapiens, UniProt P02768).
T1 construct: gene ALB
As to the kind of experiment: intrinsic tryptophan fluorescence quenching titration (water, […] °C; also pH […] phosphate buffer), supported by delayed TMZ hydrolysis. Type of assay: binding.

T1 sequence (P02768 25-609): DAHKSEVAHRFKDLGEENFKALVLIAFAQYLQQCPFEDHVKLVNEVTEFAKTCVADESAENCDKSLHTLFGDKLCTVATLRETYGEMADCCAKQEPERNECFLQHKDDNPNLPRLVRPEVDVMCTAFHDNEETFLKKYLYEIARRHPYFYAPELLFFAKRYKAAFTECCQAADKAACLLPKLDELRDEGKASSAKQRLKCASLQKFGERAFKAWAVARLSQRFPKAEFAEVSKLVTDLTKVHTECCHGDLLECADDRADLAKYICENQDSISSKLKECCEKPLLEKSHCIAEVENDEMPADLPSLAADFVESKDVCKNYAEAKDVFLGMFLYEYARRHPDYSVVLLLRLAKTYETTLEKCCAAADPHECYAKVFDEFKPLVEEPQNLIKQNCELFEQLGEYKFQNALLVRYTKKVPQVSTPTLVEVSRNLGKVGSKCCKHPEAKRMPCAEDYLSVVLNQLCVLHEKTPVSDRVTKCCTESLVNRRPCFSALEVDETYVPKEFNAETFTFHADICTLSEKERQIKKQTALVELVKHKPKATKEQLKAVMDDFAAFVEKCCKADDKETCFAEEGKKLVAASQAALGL

Consider `Cn1nnc2c(C(N)=O)ncn2c1=O` [TMZ, Temozolomide], for which the pKd is around 3.70.
